# Assay results taken from publication PMC3438169 (PLoS ONE, 2012).
# *1 amine or outer side, *2 acyl side, *3 side chain or, on linkers, in order; H or OH if unused. Where a SMILES comes first, the peptide text is derived from it. [ ]: non-standard residue; d: D form. dAla(ψthiazole) = C[C@@H](N[*:1])c1nc(C(=O)[*:2])cs1; Trp(4-OMe) = COc1cccc2[nH]cc(C[C@H](N)C(=O)O)c12; dAbu = CC[C@@H](N)C(=O)O; Dha = C=C(N)C(=O)O; Sar = CNCC(=O)O
# Columns and labels:
# [1] = system: B. multivorans; assay: Resistant mutant selection, B. multivorans; type: cell-based; settings: Mueller-Hinton agar, 4 or 16 µg/ml argyrin B
# Experimental: (§1) Resistance frequencies were calculated as the number of CFU (mutants) on drug containing plates divided by the number of CFU plated. Whole genome sequencing was done as described previously. The fusA1 gene from P. aeruginosa was generated for sequencing in two parts, using primer pairs PAEFF1/PAEFR1: […]/[…] and EFF2/EFR1: […]/[…]. The fusA1 gene from B. multivorans was generated as a single band using BCEFGF1/BCEFGR1: […]/[…]. Nucleotide sequencing of the products was done by Agencourt (Beverly MA).
# [2] = system: BYΔ8 strain with MEF1 mutations; assay: Yeast susceptibility determination, MEF1 mutants in BYΔ8 background; type: cell-based, S. cerevisiae; settings: Figure 2D: all argyrin B concentrations in the range tested
# Experimental: Yeast strains used in this study are BY4741 [32] and strain BYΔ8, derived from BY4741 but deleted for eight genes involved in drug resistance (efflux pumps: snq2, pdr5, yor1; transcription factors: pdr1, pdr2, pdr3, yap1, yrm1). […] Starting OD600 was 0.1, total volume per well 120 µl. Plates were incubated at 30°C with 770 RPM orbital shaking.
# Strain BYΔ8 was incubated in 2.5% ethylmethanesulfonate until only 50% of the cells formed colonies. […] Amplifying the mutated MEF1 gene and transforming it into non-mutagenized BYΔ8 cells validated identified mutations in MEF1.
# [3] = system: recombinant human mEF-G1 L693Q; assay: Biacore binding, human mEF-G1 L693Q; settings: 10, 20, 40 µM, HBS-P+ pH 7.4, 4% DMSO
# Excerpt: (§2) GFM1 encoding the active site of EF-G1 (residues 36–751) was PCR amplified from pDONR221 constructs using primers (GGGGACAAGTTTGTACAAAAAAGCAGGCTTAATGTCTTCATCAGGGGTGATT, GGGGACCACTTTGTACAAGAAAGCTGGGTATTAGTTCTTGGCTTTTCC). P. aeroginosa fusA1 encoding full-length EF-G was PCR amplified from pET28a-PaEFG-Nhis using primers (GGGGACCACTTTGTACAAGAAAGCTGGGTATTATCAACCTTGTTTTTT, GGGGACAAGTTTGTACAAAAAAGCAGGCTTAATGGCCCGTACTACACCC). Purified PCR products were cloned into the pDONR221 vector using Gateway cloning and BP Clonase II (Invitrogen), shuttled into an E.coli protein expression vector for N-terminal tagging (Avitag-His6 vector) using LR Clonase II (Invitrogen), and verified by sequencing. Avitag-His6-hEF-G1 and Avitag-His6-PaEF-G constructs were transformed into BL21-AI cells (Invitrogen) and isolated single colonies were used to inoculate 5 ml cultures which were grown overnight at 37°C with shaking. […]. Briefly, protein was captured on column using binding buffer (50 mM Tris; pH 7.5, 300 mM NaCl, 20 mM imidazole, 10% glycerol), washed extensively with washing buffer (50 mM Tris; pH 7.5, 500 mM NaCl, 30 mM imidazole, 10% glycerol), and then eluted with elution buffer (50 mM Tris; pH 7.5, 500 mM NaCl, 250 mM imidazole, 10% glycerol). […]
# [4] = system: P. aeruginosa; assay: Resistant mutant selection, P. aeruginosa; type: cell-based; settings: P. aeruginosa K767; solid medium containing 128 µg/ml argyrin B
# Experimental: as §1
# [5] = system: recombinant human mEF-G1 S452L; assay: Biacore binding, human mEF-G1 S452L; settings: 10, 20, 40 µM, HBS-P+ pH 7.4, 4% DMSO
# Excerpt: as §2
# [6] = system: HCT116; assay: Cell viability (CellTiter-Glo), HCT116 with siRNA or mEF-G1 variants; type: cell-based, human; settings: 7 days
# Experimental: HCT116 (ATCC, CCL-247) and RKO (ATCC, CRL-2577) cell lines were maintained in a humidified incubator at 37°C and 5% CO2 in RPMI1640 supplemented with 10% FBS. Cell viability was determined using the CellTiter-Glo luminescent cell viability assay (Promega). […] Subsequently, 40 µl of CellTiter-Glo reagent was added to each well and luminescence recorded on an Envision plate reader (Perkin Elmer). Each treatment condition was tested in triplicate and compared to an equivalent volume of DMSO as control.
# Non-targeting (NT) or GFM1 siRNA pools were obtained from Dharmacon (ON-TARGETplus SMART pool D-001810 and L-013685). HCT116 and RKO cells were reverse transfected in 6-well plates using RNAiMax (Invitrogen) and 25 nM siRNA. After 2 days, cells were harvested by trypsinization and re-plated into 6-well plates for western blot analysis or into 384-well plates for compound treatments and cell viability determination using CellTiter-Glo as described above.
# The human GFM1 cDNA (encoding mEF-G1, Table 2) was mutagenized in pENTR221 (Invitrogen) using QuikChangeII XL site-directed mutagenesis (Stratagene). The following point mutations were introduced: C1355T (encoding S452L), C1481T (encoding S494F) and T2078A (encoding L693Q). The GFM1 cDNAs were then subcloned into the mammalian expression vector pLenti4/TO/V5 using LR clonase II (Invitrogen) and sequence-verified. The pLenti4 constructs were then co-transfected with a lentiviral plasmid mix (encoding LP1, LP2 and VSV-G) into 293T cells, and viral particles were harvested after 72 h and used to infect HCT116 and RKO cells. Stable cell lines were generated by selection with 400 µg/ml Zeocin and plated into 6-well plates for western blot analysis or into 384-well plates for compound treatments and cell viability determination using CellTiter-Glo as described above.
structure (smiles),measurement,setting,value
C=C1NC(=O)CN(C)C(=O)CNC(=O)[C@H](Cc2c[nH]c3cccc(OC)c23)NC(=O)[C@H](Cc2c[nH]c3ccccc23)NC(=O)c2csc(n2)[C@@H](C)NC(=O)[C@@H](CC)NC1=O [argyrin B] (cyclo([dAbu][dAla(ψthiazole)]W[Trp(4-OMe)]G[Sar][Dha])),frequency of argyrin B resistant mutants,[1],10^−9–10^−8
same,Inhibition of the wild-type (MEF1wt) strain (in words),[2],full inhibiton of the wild-type strain
same,Binding to human mEF-G1 (in words),[3],little binding detected
same,frequency of mutants with decreased susceptibility,[4],circa 5×10^−8
same,Binding to human mEF-G1 (in words),[5],still bound
same,Lowering of IC50 by knock down of mEF-G1,"[6]; HCT116, GFM1 siRNA, CellTiter Glo",circa 9.6 fold
same,Decrease of susceptibility on expression of mEF-G1 L693Q,"[6]; HCT116, mEF-G1 L693Q",4.7 fold
same,Sensitivity change on expression of mEF-G1 S452L and S494F (in words),"[6]; HCT116, mEF-G1 S452L and S494F",only marginal effects
same,Sensitivity change on overexpression of mEF-G1 WT (in words),"[6]; HCT116, mEF-G1 WT stable overexpression",did not alter the argyrin B-sensitivity
